Measured values reported in publication PMC4988493 (Nature, 2015).

Target: UbiX (Pseudomonas aeruginosa, UniProt Q9HX08)
Test: crystal structure
Assay type: binding
Conditions: complex with DMAP

Chain of UbiX (Q9HX08 whole entry): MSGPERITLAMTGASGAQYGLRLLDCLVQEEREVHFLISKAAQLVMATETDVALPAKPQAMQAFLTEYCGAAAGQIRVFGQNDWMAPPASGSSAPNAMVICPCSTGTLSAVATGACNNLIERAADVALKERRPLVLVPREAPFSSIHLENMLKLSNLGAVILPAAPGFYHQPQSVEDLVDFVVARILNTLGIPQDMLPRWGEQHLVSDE

Cc1cc2nc3c(=O)[nH]c(=O)nc-3n(C[C@H](O)[C@H](O)[C@H](O)COP(=O)(O)O)c2cc1C [FMN]
crystal structure: crystal structure of P. aeruginosa UbiX in complex with oxidized FMN and DMAP
